Laboratory results taken from patent US6780853B1, “Neuroactive steroids of the androstane and pregnane series” (priority 1995, dated 2004).
Counter-ions that a name gives are not always drawn.

Assays:
[1] = tested on: metrazol induced convulsions; assay: Antimetrazol activity in mice; format: in vivo; settings: 10 mg/kg
Procedure: Experiments were also performed to determine the physiological relevance of neuroactive steroid and GABA receptor interactions by assessing the ability of compounds of the present invention to prevent metrazol induced convulsions in mice. Mice were injected with various doses of the test compounds of the invention, 10 minutes prior to the injection of metrazol. The time to onset of myoclonus (presence of forelimb clonic activity) induced by metrazol was determined by observing each mouse for a period of 30 minutes. In control mice, metrazol (85 mg/kg) will induce convulsion in 95% of the animals.
The anticonvulsant tests are similar to that described above.

[2] = biological target: GABA receptor complex (GRC); assay: [35S]TBPS binding in rat cerebral cortex P2 homogenate; settings: for IC50: concentration to inhibit 50% of control [35S]TBPS binding, 2 nM [35S]TBPS; for IMAX (maximum inhibition): maximum inhibition of [35S]TBPS binding
From the text: To those skilled in the art, it is known that the modulation of [^35S]t-butylbicyclophosphorothionate ([^35S]TBPS) binding is a measure of the potency and efficacy of drugs acting at the GRC, which drugs may be of potential therapeutic value in the treatment of stress, anxiety, and seizure disorders (Squires, R. F., et al., Mol, Pharmacol., 23:326 (1983); Lawrence, L. J., et al., Biochem. Biophys. Res. Comm., 123:1130-1137 (1984); Wood, et al., Pharmacol, Exp. Ther., 231:572-576 (1984)). Several experiments were performed previously to determine the nature of the modulation of [^35S]TBPS as affected by neuroactive steroids. […] Furthermore, these compounds have high potency and efficacy at the GRC, with stringent structural requirements for such activity.
The procedures for performing this assay are fully discussed in: (1) Gee, K. W. et al., European Journal of Pharmacology, 136:419-423 (1987)); and (2) Gee, et al., Molecular Pharmacology 30:218 (1986). These procedures were performed as follows:
Brains from male Sprague-Dawley rats were removed immediately following sacrifice and the cerebral cortices dissected over ice. A P2 homogenate was prepared as previously described (Gee, et al., Molecular Pharmacology 30:218 (1986)). Briefly, the cortices were gently homogenized in 032 M sucrose followed by centrifugation at 1000×g for 10 minutes. The supernatant was collected and centrifuged at 9000×g for 20 minutes. The resultant P2 pellet was suspended as a 10% (original wet weight/volume) suspension in 50 mM Na/K phosphate buffer (pH 7.4) 200 mM NaCl to form the homogenate.
One hundred microliter […] aliquots of the P2 homogenate (0.5 milligrams (mg) protein) were incubated with 2 nanomolar (nM) [^35S]TBPS (70-110 curies/millimole; New England Nuclear, Boston, Mass.) in the presence or absence of the naturally occurring steroids or their synthetic derivatives to be tested. The tested compounds were dissolved in dimethylsulfoxide (Baker Chem. Co., Phillipsburg, N.J.) and added to the incubation mixture in 5 μL aliquots. The incubation mixture was brought to a final volume of 1 mL with buffer. Non-specific binding was defined as binding in the presence of […]. The effect and specificity of GABA (Sigma Chem. Co., St. Louis, Mo.) was evaluated by performing all assays in the presence of GABA plus (+)bicuculline (Sigma Chem. Co.). Incubations maintained at 25° C. for 90 minutes (steady state conditions) were terminated by rapid filtration through glass fiber filters (No. 32, Schleicher and Schuell, Keene, N.H.). Filter-bound radioactivity was quantitated by liquid scintillation spectrophotometry. Kinetic data and compound/[^35S]TBPS dose-response curves were analyzed by nonlinear regression using a computerized iterative procedure to obtain rate constants and IC50 (concentration of compound at which half-maximal inhibition of basal [^35S]TBPS binding occurs) values.
Various compounds were screened to determine their potential as modulators of [^35S]TBPS binding in vitro. These assays were performed in accordance with the above discussed procedures. Based on these assays, we have established the structure-activity requirements for their specific interaction at the GRC and their rank order potency and efficacy. Experimental data obtained in this assay for a number of 3α-hydroxypregnan-20-one derivatives is discussed in Gee, K. W. et al., European Journal of Pharmacology, 136:419-423 (1987) and in U.S. Pat. No. 5,232,917. Table 1 provides IC50 and maximum inhibition (IMAX) measurements for numerous compounds, including examples of compounds disclosed and claimed herein. IC50 is defined as concentration of compounds to inhibit 50% of control [^35S]TBPS binding. It is an indication of a compound's in vitro potency. Maximum inhibition is an indication of a compound's in vitro efficacy.

[3] = tested on: time spent on the open-arms; assay: Elevated plus-maze test; format: in vivo, N.I.H. Swiss-Webster mice; settings: IP, 50% hpbcd, 10 mg/kg
From the text: The theoretical basis for the elevated plus-maze test is similar to that of the fight/dark transition test. As it was described previously by Pellow et al. J. Neurosci. Meth. 14:149-167 (1985)), the elevated plus-maze apparatus is designed to utilize the mice's natural aversion to open spaces. The apparatus consists of two open-arms and two enclosed-arms. The elevated plus-maze test allows for two measures of anxiety, the number of entries into the open-arms and the time spent on the open-arms, both expressed as a percentage of the total number of entries and time spent in/on both the open-arms and enclosed-arms.
Male N.I.H Swiss-Webster mice (Harlan, Indianapolis, Ind.) weighing 15-20 g were housed four per cage in polyethylene cages with sawdust bedding. The colony room was environmentally controlled (22° C.) with a 12 hr light/dark cycle (0600-1800 hr). Food and water were available ad libitum, except during testing. The experiments were run from 0700-1500 hr and groups were counterbalanced for time of day effects. Mice were only administered drug or vehicle once.
The method used was previously described (Lister, Psychopharmacol. 92:180-185 (1987)). The apparatus included two open arms perpendicular to two enclosed arms elevated 50 cm from the floor. Each arm was 50 cm long and the walls of the enclosed arms were 40 cm tall. The maze was made completely of black plexiglass. Incandescent 200 W light bulbs were above each of the open arms to produce a strong contrast between the open arms and the enclosed arms.
[…] Swiss-Webster mice were placed in the center of the plus-maze facing an open arm. During the 5 min test period, the number of entries onto the open arms and the enclosed arms, and the time spent in the open arms and enclosed arms were measured. All four paws had to be within an arm for the dependent variable to be measured. Therefore, the time spent in the center of the maze is not counted, so the total time spent in the open arms and the enclosed arms may not equal 5 min.

[4] = IP, 50% hpbcd, 10 min before metrazol 85 mg/kg

## COC1CCC2C3CCC4CC(O)(C#CCCO)CCC4(C)C3CCC12C (stereo not drawn) [3α-Hydroxy-3β-(4′-hydroxybutyn-1-yl)-17α-methoxy-5β-androstane]
[1]; [4]
  % Protected: 50%

## CC1(C2CCC3C4CCC5CC(O)(C(F)(F)F)CCC5C4CCC32C)OC(C(=O)[O-])C(C(=O)[O-])O1.[K+].[K+] (stereo not drawn) [20,20-[2′,3′-Bis(carboxy)ethylenedioxy]-3α-hydroxy-3β-trifuoromethyl-5β-19-norpregnane, dipotassium salt]
[1]; PO, 10% hpbcd
  % Protected: 25%

## CC12CCC(O)(C#CCCO)CC1CCC1C2CCC2(C)C(C(=O)CSc3ccncc3)CCC12 (stereo not drawn) [3α-Hydroxy-3β-(4-hydroxybutynyl)-21-(pyrid-4-ylthio)-5β-pregnan-20-one]
[2]
  IC50: 15 nM
  IMAX (maximum inhibition): 100%
[1]; [4]
  % Protected: 50%

## COC1CCC2C3CCC4CC(O)(C#CCCO)CCC4(C)C3CCC12C (stereo not drawn) [3β-(4′-Hydroxybutyn-1′-yl)-3α-hydroxy-17β-methoxy-5α-androst] [3β-(4′-Hydroxy-1-′-butynyl)-3α-hydroxy-17β-methoxy-5α-androstane]
[2]
  IC50: 47 nM
  IMAX (maximum inhibition): 104%
[3]
  Plus-Maze (% Control), time spent on the open-arms: 158 % Control

## COC1CCC2C3CCC4CC(O)(C#CCCO)CCC4(C)C3CCC12C (stereo not drawn) [3β-(4′-Hydroxybutyn-1′yl)-3α-hydroxy-17β-methoxy-5β-androsta] [3β-(4′-Hydroxy-1-′-butynyl)-3α-hydroxy-17β-methoxy-5β-androstane]
[2]
  IC50: 26 nM
  IMAX (maximum inhibition): 105%
[1]; IP, 50% hpbcd, 10 min before metrazol 85 mg/kg, listed as 3α-Hydroxy-3β-(4′-hydroxybutyn-1-yl)-17β-methoxy-5β-androstane
  % Protected: 75%

## C#CCC1(O)CCC2(C)C(CCC3C2CCC2(C)C(OC)CCC32)C1 (stereo not drawn) [3α-Hydroxy-17β-methoxy-3β-(2-propynyl)-5α-androstane]
[2]
  IC50: 387 nM
  IMAX (maximum inhibition): 101%
[1]; [4]
  % Protected: 12.5%

## C#C[C@@]1(O)CC[C@@]2(C)[C@@H](CC[C@@H]3[C@@H]2CC[C@]2(C)[C@@H](OC)CC[C@@H]32)C1 [3β-Ethynyl-3α-hydroxy-17β-methoxy-5α-androstane]
[2]
  IC50: 122 nM
  IMAX (maximum inhibition): 106%
[3]
  Plus-Maze (% Control), time spent on the open-arms: 129 % Control

## CC(C)O[C@H]1C[C@@]2(C)[C@@H](CC[C@H]3[C@@H]4CCC[C@@]4(C)CC[C@@H]32)C[C@@H]1O [3α-Hydroxy-2β-isopropoxy-5α-androstane, 2β-Isopropoxy-3α-hydroxy-5α-androstane]
[2]
  IC50: 456 nM
  IMAX (maximum inhibition): 98%

## C[C@@]12CCC[C@H]1[C@@H]1CC[C@@H]3C[C@H](O)CC[C@]3(C)[C@H]1CC2 [3α-Hydroxy-5β-androstane, reference compound]
[2]
  IC50: 815 nM
  IMAX (maximum inhibition): 83%

## COC1CCC2C3CCC4CC(O)(CCl)CCC4(C)C3CCC12C (stereo not drawn) [3β-Chloromethyl-3α-hydroxy-17β-methoxy-5α-androstane]
[2]
  IC50: 361 nM
  IMAX (maximum inhibition): 98%
[1]; [4]
  % Protected: 12.5%

## C#CCO[C@H]1CC[C@H]2[C@@H]3CC[C@H]4C[C@](C)(O)CC[C@]4(C)[C@H]3CC[C@]12C [3α-Hydroxy-3β-methyl-17β-(2-propynyloxy)-5α-androstane]
[2]
  IC50: 163 nM
  IMAX (maximum inhibition): 94%

## CCCO[C@H]1C[C@@]2(C)[C@@H](CC[C@@H]3[C@@H]2CC[C@]2(C)[C@@H](C(=O)CSCCCS(=O)(=O)[O-])CC[C@@H]32)C[C@@H]1O.[Na+] [3α-hydroxy-2β-propoxy-21-thiopropanesulfonate-5α-pregnan-20-one sodium salt]
[2]
  IC50: 67 nM
  IMAX (maximum inhibition): 101%

## CO[C@H]1CC[C@H]2[C@@H]3CC[C@H]4C[C@H](O)[C@@H](OC(C)C)C[C@]4(C)[C@H]3CC[C@]12C [3α-Hydroxy-2β-isopropoxy-17β-methoxy-5α-androstane]
[2]
  IC50: 26 nM
  IMAX (maximum inhibition): 100%

## COCC1(O)CCC2(C)C(CCC3C2CCC2(C)C(C(=O)CS(=O)(=O)c4ccc(N5CCCC5)cc4)CCC32)C1 (stereo not drawn) [3α-Hydroxy-3β-methoxymnethyl-21-(4′-pyrrolidinophenyl)sulfonyl-5α-pregnan-20-one]
[2]
  IC50: 208 nM
  IMAX (maximum inhibition): 101%

## CC(=O)c1ccc(C#C[C@@]2(O)CC[C@@]3(C)[C@H](CC[C@@H]4[C@@H]3CC[C@]3(C)[C@@H](C(=O)CSc5ccncc5)CC[C@@H]43)C2)cc1 [3β-(4′-acetylphenyl)ethynyl-3α-hydroxy-21-(pyrid-4ylthio)-5β-pregnan-20-one]
[2]
  IC50: 29 nM
  IMAX (maximum inhibition): 94%

## COCC1(O)CCC2(C)C(CCC3C2CCC2(C)C(C(=O)CS(=O)(=O)c4ccc(F)cc4)CCC32)C1 (stereo not drawn) [21-(4′-fluorophenyl)sulfonyl-3α-hydroxy-3β-methoxymethyl-5α-pregnan-20-one]
[2]
  IC50: 49 nM
  IMAX (maximum inhibition): 99%

## CC12CCC(O)CC1CCC1C2CCC2(C)C(C(=O)CS(=O)(=O)O)CCC12 (stereo not drawn) [3α-Hydroxy-21-sulfonic acid-5β-pregnan-20-one 21-sodium salt]
[2]
  IC50: 732 nM
  IMAX (maximum inhibition): 62%

## C#CC1(O)CCC2(C)C(CCC3C2CCC2(C)C(C(=O)CSCCCOS(=O)(=O)O)CCC32)C1 (stereo not drawn) [3β-Ethynyl-3α-hydroxy-21-thiopropanesulfate-5β-pregnan-20-one sodium salt]
[2]
  IC50: 113 nM
  IMAX (maximum inhibition): 104%

## C#C[C@@]1(O)CC[C@@]2(C)[C@@H](CC[C@@H]3[C@@H]2CC[C@]2(C)[C@@H](C(=O)CSc4ccncc4)CC[C@@H]32)C1 [3β-ethynyl-3α-hydroxy-21-(pyrid-4-ylthio)-5α-pregnan-20-one]
[2]
  IC50: 43 nM
  IMAX (maximum inhibition): 103%

## C[n+]1cccc2cc(OCC(=O)C3CCC4C5CCC6CC(C)(O)CCC6(C)C5CCC34C)ccc21 (stereo not drawn) [3α-hydroxy-3β-methyl-21-(quinolin-6-yloxy)-5α-pregnan-20-one N-methyl iodide]
[2]
  IC50: 252 nM
  IMAX (maximum inhibition): 102%
